Test results from US20080275058A1, “N-Substituted-1H-Quinoline-2,4-Diones, Preparation Method Thereof, And Pharmaceutical Composition Containing The Same” (KOREA RESEARCH INSTITUTE OF CHEMICAL TECHNOLOGY, priority 2005, published 2008).
Like-named read-outs stand apart in the source and are kept apart here.

Key:
[1] = target: T1, Human serotonin 5-HT6 receptor (Homo sapiens, UniProt P50406); assay: [3H]LSD binding assay on cloned 5-HT6 receptor membranes
T1 construct: made in house; host or cells: insect Sf21 cells (baculovirus vector BacPAK8)
T1 sequence (P50406 whole entry): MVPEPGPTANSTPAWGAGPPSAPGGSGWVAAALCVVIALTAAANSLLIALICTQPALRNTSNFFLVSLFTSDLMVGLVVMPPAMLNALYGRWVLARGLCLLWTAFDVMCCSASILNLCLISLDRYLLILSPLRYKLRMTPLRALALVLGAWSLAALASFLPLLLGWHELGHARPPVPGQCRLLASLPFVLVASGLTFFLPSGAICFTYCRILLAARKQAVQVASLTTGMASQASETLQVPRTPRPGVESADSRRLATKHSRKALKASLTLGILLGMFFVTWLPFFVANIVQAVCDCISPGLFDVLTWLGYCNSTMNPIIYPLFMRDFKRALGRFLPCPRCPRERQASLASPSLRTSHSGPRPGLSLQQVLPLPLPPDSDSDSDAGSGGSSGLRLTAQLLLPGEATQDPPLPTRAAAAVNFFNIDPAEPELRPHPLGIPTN

5-HT7 = target: T2, 5-HT7 (Homo sapiens, UniProt P34969); assay: Radioligand binding, 5-HT7 ([3H]LSD); conditions: Table 4; [3H]LSD 3 nM; read-out: Binding affinity, IC50 (nM) 5-HT7
T2 construct: purchased Euroscreen/BioSignal Packard Inc
T2 sequence (P34969 whole entry): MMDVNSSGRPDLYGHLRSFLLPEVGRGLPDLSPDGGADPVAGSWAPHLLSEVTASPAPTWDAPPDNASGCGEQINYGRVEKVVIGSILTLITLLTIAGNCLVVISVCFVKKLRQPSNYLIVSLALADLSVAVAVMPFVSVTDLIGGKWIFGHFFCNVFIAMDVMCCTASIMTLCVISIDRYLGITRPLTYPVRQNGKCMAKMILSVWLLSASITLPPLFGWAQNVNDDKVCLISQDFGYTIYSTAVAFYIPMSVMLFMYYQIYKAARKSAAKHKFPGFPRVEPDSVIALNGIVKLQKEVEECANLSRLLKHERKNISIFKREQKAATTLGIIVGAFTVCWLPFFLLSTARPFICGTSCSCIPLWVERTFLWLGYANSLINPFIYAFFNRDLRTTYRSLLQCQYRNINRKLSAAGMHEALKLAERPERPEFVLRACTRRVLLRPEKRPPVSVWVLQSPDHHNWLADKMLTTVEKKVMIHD

5-HT1a = target: T3, 5-HT1a (Homo sapiens, UniProt P08908); assay: Radioligand binding, 5-HT1a ([3H]8-OH-DPAT); conditions: Table 4; [3H]8-OH-DPAT 0.5 nM; read-out: Binding affinity, IC50 (nM) 5-HT1a
T3 construct: purchased Euroscreen/BioSignal Packard Inc
T3 sequence (P08908 1-422): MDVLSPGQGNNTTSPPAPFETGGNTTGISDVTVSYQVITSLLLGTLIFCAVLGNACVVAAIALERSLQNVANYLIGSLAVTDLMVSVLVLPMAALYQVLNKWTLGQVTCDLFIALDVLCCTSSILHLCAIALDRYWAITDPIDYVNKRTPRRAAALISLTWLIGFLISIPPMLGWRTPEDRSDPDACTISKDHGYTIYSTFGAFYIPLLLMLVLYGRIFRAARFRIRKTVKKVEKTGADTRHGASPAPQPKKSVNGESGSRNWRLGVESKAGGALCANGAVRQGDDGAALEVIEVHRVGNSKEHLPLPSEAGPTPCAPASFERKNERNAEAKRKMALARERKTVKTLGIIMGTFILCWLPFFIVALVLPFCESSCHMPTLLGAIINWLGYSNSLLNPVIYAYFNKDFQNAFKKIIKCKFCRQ
Procedure: Radioligand bindings were performed according to the test method provided by the supplier of receptor membrane (Euroscreen/BioSignal Packard Inc.). The detailed assay conditions and the results were shown in the following Table 3 and Table 4, respectively.

5-HT2a = target: T4, 5-HT2a (Homo sapiens, UniProt P28223); assay: Radioligand binding, 5-HT2a ([3H]Ketanserin); conditions: Table 4; [3H]Ketanserin 1 nM; read-out: Binding affinity, IC50 (nM) 5-HT2a
T4 construct: purchased Euroscreen/BioSignal Packard Inc
T4 sequence (P28223 whole entry): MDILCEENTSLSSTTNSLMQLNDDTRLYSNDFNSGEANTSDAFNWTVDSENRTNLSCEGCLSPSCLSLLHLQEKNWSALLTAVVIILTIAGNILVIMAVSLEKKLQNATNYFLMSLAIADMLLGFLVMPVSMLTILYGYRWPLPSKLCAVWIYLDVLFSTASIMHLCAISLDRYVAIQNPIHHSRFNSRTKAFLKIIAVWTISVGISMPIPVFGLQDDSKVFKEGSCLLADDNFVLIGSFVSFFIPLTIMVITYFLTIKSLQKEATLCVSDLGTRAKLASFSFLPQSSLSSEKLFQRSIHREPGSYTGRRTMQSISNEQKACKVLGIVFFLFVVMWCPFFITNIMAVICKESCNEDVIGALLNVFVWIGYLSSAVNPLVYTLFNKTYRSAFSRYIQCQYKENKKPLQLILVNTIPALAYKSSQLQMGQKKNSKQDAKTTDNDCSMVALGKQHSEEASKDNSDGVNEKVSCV

5-HT2c = target: T5, 5-HT2c (Homo sapiens, UniProt P28335); assay: Radioligand binding, 5-HT2c ([3H]Mesulergine); conditions: Table 4; [3H]Mesulergine 1 nM; read-out: Binding affinity, IC50 (nM) 5-HT2c
T5 construct: purchased Euroscreen/BioSignal Packard Inc
T5 sequence (P28335 33-458): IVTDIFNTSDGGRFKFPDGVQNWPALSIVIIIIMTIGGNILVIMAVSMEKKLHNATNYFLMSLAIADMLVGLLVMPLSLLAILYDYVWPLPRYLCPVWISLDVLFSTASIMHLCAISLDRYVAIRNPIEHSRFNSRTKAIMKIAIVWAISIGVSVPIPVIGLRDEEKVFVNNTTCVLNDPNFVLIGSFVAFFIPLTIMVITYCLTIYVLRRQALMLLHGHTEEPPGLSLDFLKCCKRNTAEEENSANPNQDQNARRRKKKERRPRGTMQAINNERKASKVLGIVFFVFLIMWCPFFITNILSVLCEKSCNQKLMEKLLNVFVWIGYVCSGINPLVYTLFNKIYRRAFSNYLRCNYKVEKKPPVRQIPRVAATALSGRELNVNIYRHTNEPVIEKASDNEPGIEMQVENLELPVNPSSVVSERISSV

D1 = D1 (Homo sapiens, UniProt P21728); assay: Radioligand binding, dopamine D1; conditions: Table 4; read-out: Binding affinity, IC50 (nM) D1
Sequence of D1 (P21728 whole entry): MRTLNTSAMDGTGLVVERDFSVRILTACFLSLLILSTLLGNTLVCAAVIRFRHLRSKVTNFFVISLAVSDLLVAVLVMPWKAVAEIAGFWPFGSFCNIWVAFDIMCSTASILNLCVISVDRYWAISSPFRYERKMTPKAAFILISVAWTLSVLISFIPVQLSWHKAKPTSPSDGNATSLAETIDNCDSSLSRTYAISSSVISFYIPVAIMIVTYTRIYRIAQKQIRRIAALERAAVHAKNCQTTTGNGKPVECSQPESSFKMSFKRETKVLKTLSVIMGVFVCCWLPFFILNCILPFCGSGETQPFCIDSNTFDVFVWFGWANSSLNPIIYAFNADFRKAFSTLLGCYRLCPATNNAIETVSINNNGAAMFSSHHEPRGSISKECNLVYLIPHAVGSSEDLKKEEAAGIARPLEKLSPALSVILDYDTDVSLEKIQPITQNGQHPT

hD2L = target: T6, hD2L (Homo sapiens, UniProt P14416); assay: Radioligand binding, dopamine D2 ([3H]spiperone); conditions: Table 4; [3H]spiperone 1 nM; read-out: Binding affinity, IC50 (nM) D2
T6 construct: purchased BioSignal Packard Inc., Montreal, Canada
T6 sequence (P14416 whole entry): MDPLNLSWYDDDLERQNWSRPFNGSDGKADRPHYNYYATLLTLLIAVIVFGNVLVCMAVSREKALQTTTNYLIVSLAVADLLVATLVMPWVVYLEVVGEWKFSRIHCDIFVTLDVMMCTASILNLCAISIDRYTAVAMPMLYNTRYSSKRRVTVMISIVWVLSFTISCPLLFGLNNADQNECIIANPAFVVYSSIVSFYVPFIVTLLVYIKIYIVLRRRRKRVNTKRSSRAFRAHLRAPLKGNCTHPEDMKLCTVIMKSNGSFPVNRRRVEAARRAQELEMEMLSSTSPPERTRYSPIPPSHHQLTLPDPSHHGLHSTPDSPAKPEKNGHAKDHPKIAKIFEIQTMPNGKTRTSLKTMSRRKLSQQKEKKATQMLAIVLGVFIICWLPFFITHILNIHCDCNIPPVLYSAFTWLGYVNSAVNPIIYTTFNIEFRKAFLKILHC
Procedure: (§1) 2-2: Binding assays of Dopamine Receptor Family
(§2) The radioligands used were [^3H] spiperone (for hD2L and hD3 receptors, 1 nM) and [^3H] YM-09151-2 (for hD4.2 receptor, 0.06 nM). Radioligand bindings were performed by the protocols provided by the supplier of receptor membranes (BioSignal Packard Inc., Montreal, Canada). Briefly, the buffer used in D2 or D3 receptor binding assay was 50 mM Tris-HCl (pH 7.4), 10 mM MgCl2, 1 mM EDTA, or 50 mM Tris-HCl (pH 7.4), 5 mM MgCl2, 5 mM EDTA, 5 mM KCl, 1.5 mM CaCl2, 120 mM NaCl, respectively. In [^3H] YM-09151-2 receptor binding assays, the buffer containing 50 mM Tris-HCl (pH 7.4), 5 mM MgCl2, 5 mM EDTA, 5 mM KCl and 1.5 mM CaCl2 was used. […] Competition binding studies were carried out with 7-8 concentrations of the test compound run in duplicate tubes, and isotherms from three assays were calculated by computerized nonlinear regression analysis (GraphPad Prism Program, San Diego, […]) to yield median inhibitory concentration (IC50) values.

hD3 = target: T7, hD3 (Homo sapiens, UniProt P35462); assay: Radioligand binding, dopamine D3 ([3H]spiperone); conditions: Table 4; [3H]spiperone 1 nM; read-out: Binding affinity, IC50 (nM) D3
T7 construct: purchased BioSignal Packard Inc., Montreal, Canada
T7 sequence (P35462 whole entry): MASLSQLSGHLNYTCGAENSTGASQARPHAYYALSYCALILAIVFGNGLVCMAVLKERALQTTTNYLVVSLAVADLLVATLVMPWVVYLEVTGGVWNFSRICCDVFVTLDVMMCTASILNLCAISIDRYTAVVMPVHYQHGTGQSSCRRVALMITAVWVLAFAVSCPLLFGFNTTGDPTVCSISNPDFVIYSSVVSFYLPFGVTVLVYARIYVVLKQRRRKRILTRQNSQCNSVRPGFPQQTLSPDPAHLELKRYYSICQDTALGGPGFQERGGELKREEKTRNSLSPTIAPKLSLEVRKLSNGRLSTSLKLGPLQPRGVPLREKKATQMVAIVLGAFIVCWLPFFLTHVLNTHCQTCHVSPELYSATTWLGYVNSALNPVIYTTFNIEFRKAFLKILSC
Procedure: as §1, §2

hD4.2 receptor = target: T8, hD4.2 receptor (Homo sapiens, UniProt P21917, DEL265-296); assay: Radioligand binding, dopamine D4 ([3H]YM-09151-2); conditions: Table 4; [3H]YM-09151-2 0.06 nM; read-out: Binding affinity, IC50 (nM) D4
T8 construct: purchased BioSignal Packard Inc., Montreal, Canada
T8 sequence (P21917 with tags, fused parts or gaps DEL265-296): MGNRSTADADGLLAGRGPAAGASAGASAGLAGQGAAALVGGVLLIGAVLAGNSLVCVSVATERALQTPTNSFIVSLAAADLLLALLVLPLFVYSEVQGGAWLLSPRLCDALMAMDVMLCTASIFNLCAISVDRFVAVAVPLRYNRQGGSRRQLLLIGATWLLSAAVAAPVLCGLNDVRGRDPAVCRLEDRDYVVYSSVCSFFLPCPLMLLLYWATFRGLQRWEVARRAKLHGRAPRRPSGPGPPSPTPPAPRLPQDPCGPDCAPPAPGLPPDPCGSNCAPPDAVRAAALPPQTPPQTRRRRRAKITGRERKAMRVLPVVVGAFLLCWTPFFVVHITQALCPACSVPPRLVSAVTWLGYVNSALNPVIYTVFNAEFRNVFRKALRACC
Procedure: as §1, §2

[2] = Table 2, 1.87 nM [3H]LSD, 37 C, 60 min, read-out: IC50 (nM), binding affinity to the 5-HT6 receptor
[3] = Table 4, read-out: Binding affinity, IC50 (nM) 5-HT6

SMILES | IC50 [1, 2] [nM] | IC50 [1, 3] [nM] | IC50 (5-HT7) [nM] | IC50 (5-HT1a) [nM] | IC50 (5-HT2a) [nM] | IC50 (5-HT2c) [nM] | IC50 (D1) [nM] | IC50 (hD2L) [nM] | IC50 (hD3) [nM] | IC50 (hD4.2 receptor) [nM] | melting point [°C] | binding affinity at 5-HT6 receptor labeled by [3H]LSD, in words ([1]; comment on Table 2)
CCN(CC)c1ccc(C2(C)C(=O)c3c(N4CCN(C)CC4)cc(Cl)cc3N(Cc3ccccc3)C2=O)cc1 (centres unmarked) [Example 5, 1-Benzyl-7-chloro-3-(4-diethylamino-phenyl)-3-methyl-5-(4-methyl-piperazin-1-yl)-1H-quinoline-2,4-dione] | 37.8 | 16.8 | 7620 | 6450 | 7540 | 4660 | 7700 | 7050 | 7080 | 8750 | 204 to 206 | –
CN1CCN(c2cc(Cl)cc3c2C(=O)C(C)(c2ccc(O)cc2)C(=O)N3Cc2cccc([N+](=O)[O-])c2)CC1 (centres unmarked) [Example 8, 7-Chloro-3-(4-hydroxy-phenyl)-3-methyl-5-(4-methyl-piperazin-1-yl)-1-(3-nitro-benzyl)-1H-quinoline-2,4-dione] | 23.8 | 16.8 | 9440 | 7510 | 6950 | 8810 | 7040 | 7290 | 9020 | 9150 | 262 to 264 | –
CC1(c2ccc([N+](=O)[O-])cc2)C(=O)c2c(N3CCNCC3)cc(Cl)cc2N(Cc2ccccc2)C1=O (centres unmarked) [Example 15, 1-Benzyl-7-chloro-3-methyl-3-(4-nitro-phenyl)-5-piperazin-1-yl-1H-quinoline-2,4-dione] | 12.1 | 15.2 | 9510 | 6350 | 8120 | 9950 | 5810 | 6660 | 9740 | 9460 | 145 to 146 | –
CC1(c2ccc(Cl)cc2)C(=O)c2c(N3CCNCC3)cc(Cl)cc2N(Cc2ccccc2)C1=O (centres unmarked) [Example 19, 1-Benzyl-7-chloro-3-(4-chloro-phenyl)-3-methyl-5-piperazin-1-yl-1H-quinoline-2,4-dione] | 2.3 | 15.3 | 7570 | 6550 | 9100 | 6910 | 7040 | 8450 | 9140 | 8090 | 135 to 136 | –
CC1(c2ccc(Br)cc2)C(=O)c2c(N3CCNCC3)cc(Cl)cc2N(Cc2ccccc2)C1=O (centres unmarked) [Example 20, 1-Benzyl-3-(4-bromo-phenyl)-7-chloro-3-methyl-5-piperazin-1-yl-1H-quinoline-2,4-dione] | 1.9 | 18.2 | 6840 | 6360 | 5700 | > 10000 | 8540 | 8250 | 9380 | 8990 | 116 to 117 | significant affinities
COc1ccc(C2(C)C(=O)c3c(N4CCNCC4)cc(Cl)cc3N(Cc3cccc([N+](=O)[O-])c3)C2=O)cc1 (centres unmarked) [Example 23, 7-Chloro-3-(4-methoxy-phenyl)-3-methyl-1-(3-nitro-benzyl)-5-piperazin-1-yl-1H quinoline-2,4-dione] | 2.7 | 16.7 | 8450 | 9010 | 6480 | 8400 | 7640 | 6930 | 9650 | 9090 | 153 to 154 | –
COc1ccc(C2(C)C(=O)c3c(N4CCNCC4)cc(Cl)cc3N(Cc3cccc(N)c3)C2=O)cc1 (centres unmarked) [Example 25, 1-(3-Amino-benzyl)-7-chloro-3-(4-methoxy-phenyl)-3-methyl-5-piperazin-1yl-1H-quinoline-2,4-dione] | 6.2 | 15.9 | 8050 | 5890 | 6610 | 7600 | 6520 | 7650 | 9660 | 9750 | 183 to 184 | –
COc1ccc(C2(C)C(=O)c3c(N4CCNCC4)cc(Cl)cc3N(Cc3ccccc3OC)C2=O)cc1 (centres unmarked) [Example 29, 7-Chloro-1-(2-methoxy-benzyl)-3-(4-methoxy-phenyl)-3-methyl-5-piperazin-1-yl-1H-quinoline-2,4-dione] | 34.2 | 15 | 7500 | 7580 | 9150 | 8050 | 7810 | 9170 | 9410 | 9000 | 153 to 155 | –
